Measured values reported in PubChem BioAssay (NCI).
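Dose response: 5 concentrations. Exposure: 48 h. Format: 96-well plates. Endpoint: linear interpolation; highest concentration if not reached. The concentration for full growth arrest is given as TGI.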

System: HOP-92 NSCLC
Test: DTP human tumour cell line panel, 48 h

SMILES | TGI [µM]
CCOc1ccccc1/C=C(/C#N)C(N)=O | > 100
COc1cccc(-c2nnc3c(-c4ccccc4)nc4ccccc4n23)c1 | > 100
c1ccc(COC2NCCN2Cc2ccccc2)cc1 (configuration not stated) | > 100
NC(=O)C1CCCNC1 (configuration not stated) | > 100

System: HS 578T breast
Test: DTP human tumour cell line panel, 48 h

SMILES | TGI [µM]
C#CC1(O)C(COP(=O)(O)OC(COCCCCCCCCCCCCCCCCCC)COP(=O)(O)OCC2OC(n3cc(C)c(=O)[nH]c3=O)CC2N=[N+]=[N-])OC(n2ccc(N)nc2=O)C1O (configuration not stated) | 62.9
CCOc1ccccc1/C=C(/C#N)C(N)=O | > 100
COc1cccc(-c2nnc3c(-c4ccccc4)nc4ccccc4n23)c1 | > 100
c1ccc(COC2NCCN2Cc2ccccc2)cc1 (configuration not stated) | > 100
NC(=O)C1CCCNC1 (configuration not stated) | > 100

System: HT29 colon
Test: DTP human tumour cell line panel, 48 h

SMILES | TGI [µM]
C#CC1(O)C(COP(=O)(O)OC(COCCCCCCCCCCCCCCCCCC)COP(=O)(O)OCC2OC(n3cc(C)c(=O)[nH]c3=O)CC2N=[N+]=[N-])OC(n2ccc(N)nc2=O)C1O (configuration not stated) | > 50.9
CCOc1ccccc1/C=C(/C#N)C(N)=O | > 100
COc1cccc(-c2nnc3c(-c4ccccc4)nc4ccccc4n23)c1 | > 100
c1ccc(COC2NCCN2Cc2ccccc2)cc1 (configuration not stated) | > 100
NC(=O)C1CCCNC1 (configuration not stated) | > 100

System: IGROV1 ovarian
Test: DTP human tumour cell line panel, 48 h

SMILES | TGI [µM]
C#CC1(O)C(COP(=O)(O)OC(COCCCCCCCCCCCCCCCCCC)COP(=O)(O)OCC2OC(n3cc(C)c(=O)[nH]c3=O)CC2N=[N+]=[N-])OC(n2ccc(N)nc2=O)C1O (configuration not stated) | 5.05
CCOc1ccccc1/C=C(/C#N)C(N)=O | > 100
COc1cccc(-c2nnc3c(-c4ccccc4)nc4ccccc4n23)c1 | > 100
c1ccc(COC2NCCN2Cc2ccccc2)cc1 (configuration not stated) | > 100
NC(=O)C1CCCNC1 (configuration not stated) | > 100

System: K-562 leukemia
Test: DTP human tumour cell line panel, 48 h

SMILES | TGI [µM]
C#CC1(O)C(COP(=O)(O)OC(COCCCCCCCCCCCCCCCCCC)COP(=O)(O)OCC2OC(n3cc(C)c(=O)[nH]c3=O)CC2N=[N+]=[N-])OC(n2ccc(N)nc2=O)C1O (configuration not stated) | > 71.4
CCOc1ccccc1/C=C(/C#N)C(N)=O | > 100
COc1cccc(-c2nnc3c(-c4ccccc4)nc4ccccc4n23)c1 | > 56.5
c1ccc(COC2NCCN2Cc2ccccc2)cc1 (configuration not stated) | > 100

System: KM12 colon
Test: DTP human tumour cell line panel, 48 h

SMILES | TGI [µM]
C#CC1(O)C(COP(=O)(O)OC(COCCCCCCCCCCCCCCCCCC)COP(=O)(O)OCC2OC(n3cc(C)c(=O)[nH]c3=O)CC2N=[N+]=[N-])OC(n2ccc(N)nc2=O)C1O (configuration not stated) | 20.5
CCOc1ccccc1/C=C(/C#N)C(N)=O | > 100
COc1cccc(-c2nnc3c(-c4ccccc4)nc4ccccc4n23)c1 | > 43.7
c1ccc(COC2NCCN2Cc2ccccc2)cc1 (configuration not stated) | > 100
NC(=O)C1CCCNC1 (configuration not stated) | > 100

System: LOX IMVI melanoma
Test: DTP human tumour cell line panel, 48 h

SMILES | TGI [µM]
C#CC1(O)C(COP(=O)(O)OC(COCCCCCCCCCCCCCCCCCC)COP(=O)(O)OCC2OC(n3cc(C)c(=O)[nH]c3=O)CC2N=[N+]=[N-])OC(n2ccc(N)nc2=O)C1O (configuration not stated) | 13
CCOc1ccccc1/C=C(/C#N)C(N)=O | > 100
COc1cccc(-c2nnc3c(-c4ccccc4)nc4ccccc4n23)c1 | > 100
c1ccc(COC2NCCN2Cc2ccccc2)cc1 (configuration not stated) | > 100
NC(=O)C1CCCNC1 (configuration not stated) | > 100

System: M14 melanoma
Test: DTP human tumour cell line panel, 48 h

SMILES | TGI [µM]
C#CC1(O)C(COP(=O)(O)OC(COCCCCCCCCCCCCCCCCCC)COP(=O)(O)OCC2OC(n3cc(C)c(=O)[nH]c3=O)CC2N=[N+]=[N-])OC(n2ccc(N)nc2=O)C1O (configuration not stated) | 26.1
CCOc1ccccc1/C=C(/C#N)C(N)=O | > 100
COc1cccc(-c2nnc3c(-c4ccccc4)nc4ccccc4n23)c1 | > 100
c1ccc(COC2NCCN2Cc2ccccc2)cc1 (configuration not stated) | > 100
NC(=O)C1CCCNC1 (configuration not stated) | > 100

System: MALME-3M melanoma
Test: DTP human tumour cell line panel, 48 h

SMILES | TGI [µM]
C#CC1(O)C(COP(=O)(O)OC(COCCCCCCCCCCCCCCCCCC)COP(=O)(O)OCC2OC(n3cc(C)c(=O)[nH]c3=O)CC2N=[N+]=[N-])OC(n2ccc(N)nc2=O)C1O (configuration not stated) | 36.8
CCOc1ccccc1/C=C(/C#N)C(N)=O | > 100
COc1cccc(-c2nnc3c(-c4ccccc4)nc4ccccc4n23)c1 | > 83.7
c1ccc(COC2NCCN2Cc2ccccc2)cc1 (configuration not stated) | > 100
NC(=O)C1CCCNC1 (configuration not stated) | > 100

System: MCF7 breast
Test: DTP human tumour cell line panel, 48 h

SMILES | TGI [µM]
C#CC1(O)C(COP(=O)(O)OC(COCCCCCCCCCCCCCCCCCC)COP(=O)(O)OCC2OC(n3cc(C)c(=O)[nH]c3=O)CC2N=[N+]=[N-])OC(n2ccc(N)nc2=O)C1O (configuration not stated) | 8.67
CCOc1ccccc1/C=C(/C#N)C(N)=O | > 100
COc1cccc(-c2nnc3c(-c4ccccc4)nc4ccccc4n23)c1 | > 100
c1ccc(COC2NCCN2Cc2ccccc2)cc1 (configuration not stated) | > 100
NC(=O)C1CCCNC1 (configuration not stated) | > 100

System: MDA-MB-231 breast
Test: DTP human tumour cell line panel, 48 h

SMILES | TGI [µM]
C#CC1(O)C(COP(=O)(O)OC(COCCCCCCCCCCCCCCCCCC)COP(=O)(O)OCC2OC(n3cc(C)c(=O)[nH]c3=O)CC2N=[N+]=[N-])OC(n2ccc(N)nc2=O)C1O (configuration not stated) | 32.2
CCOc1ccccc1/C=C(/C#N)C(N)=O | > 100
COc1cccc(-c2nnc3c(-c4ccccc4)nc4ccccc4n23)c1 | > 100
c1ccc(COC2NCCN2Cc2ccccc2)cc1 (configuration not stated) | > 100
NC(=O)C1CCCNC1 (configuration not stated) | > 100

System: MDA-MB-435
Test: DTP human tumour cell line panel, 48 h

SMILES | TGI [µM]
C#CC1(O)C(COP(=O)(O)OC(COCCCCCCCCCCCCCCCCCC)COP(=O)(O)OCC2OC(n3cc(C)c(=O)[nH]c3=O)CC2N=[N+]=[N-])OC(n2ccc(N)nc2=O)C1O (configuration not stated) | 8.38
CCOc1ccccc1/C=C(/C#N)C(N)=O | 41.9
COc1cccc(-c2nnc3c(-c4ccccc4)nc4ccccc4n23)c1 | 8.62
c1ccc(COC2NCCN2Cc2ccccc2)cc1 (configuration not stated) | > 100
NC(=O)C1CCCNC1 (configuration not stated) | > 100

System: MDA-N
Test: DTP human tumour cell line panel, 48 h

SMILES | TGI [µM]
C#CC1(O)C(COP(=O)(O)OC(COCCCCCCCCCCCCCCCCCC)COP(=O)(O)OCC2OC(n3cc(C)c(=O)[nH]c3=O)CC2N=[N+]=[N-])OC(n2ccc(N)nc2=O)C1O (configuration not stated) | 20.5
CCOc1ccccc1/C=C(/C#N)C(N)=O | 45.7
COc1cccc(-c2nnc3c(-c4ccccc4)nc4ccccc4n23)c1 | 14.2
c1ccc(COC2NCCN2Cc2ccccc2)cc1 (configuration not stated) | > 100
NC(=O)C1CCCNC1 (configuration not stated) | > 100

System: MOLT-4 leukemia
Test: DTP human tumour cell line panel, 48 h

SMILES | TGI [µM]
C#CC1(O)C(COP(=O)(O)OC(COCCCCCCCCCCCCCCCCCC)COP(=O)(O)OCC2OC(n3cc(C)c(=O)[nH]c3=O)CC2N=[N+]=[N-])OC(n2ccc(N)nc2=O)C1O (configuration not stated) | 59.5
CCOc1ccccc1/C=C(/C#N)C(N)=O | > 100
COc1cccc(-c2nnc3c(-c4ccccc4)nc4ccccc4n23)c1 | > 63.8
c1ccc(COC2NCCN2Cc2ccccc2)cc1 (configuration not stated) | > 100
NC(=O)C1CCCNC1 (configuration not stated) | > 100

System: NCI-H226 lung
Test: DTP human tumour cell line panel, 48 h

SMILES | TGI [µM]
C#CC1(O)C(COP(=O)(O)OC(COCCCCCCCCCCCCCCCCCC)COP(=O)(O)OCC2OC(n3cc(C)c(=O)[nH]c3=O)CC2N=[N+]=[N-])OC(n2ccc(N)nc2=O)C1O (configuration not stated) | > 91.2
CCOc1ccccc1/C=C(/C#N)C(N)=O | > 100
COc1cccc(-c2nnc3c(-c4ccccc4)nc4ccccc4n23)c1 | > 100
c1ccc(COC2NCCN2Cc2ccccc2)cc1 (configuration not stated) | > 100
